Results on 38 molecules are retold here after patent publication US20160158200A1, “Combinations of Hepatitis C Virus Inhibitors” (priority 2013, published 2016).

This experiment concerns HCV genotype-1a variant with glutamine 30 changed to glutamate in the NS5A protein. The class given is cell-based. Particulars: test compound titrated with BMS-790052 fixed at 200 nM; genotype 1a Q30E replicon. In a few lines: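 Synergy was assessed by combining several fixed amounts of an NS5A-targeting compound with a titration of the second compound of interest.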

In the case of `Cc1cc(-c2ccc(-c3c[nH]c([C@@H](NC(=O)C(C)(C)C)C(C)C)n3)cc2)ccc1-c1c[nH]c([C@@H](NC(=O)C(C)(C)C)C(C)C)n1` [Compound N-77], the “Fold-Synergistic 1a (Q30E)” value is given as over 100 fold.

`COC(=O)N(C)C1(C(=O)N[C@H](c2ncc(-c3ccc(-c4cc5ccc(-c6cnc([C@@H](NC(=O)C7(N(C)C(=O)OC)CC7)C(C)(C)C)[nH]6)cc5o4)cc3)[nH]2)C(C)(C)C)CC1.O=C(O)C(F)(F)F` [Compound B63]: the “Fold-Synergistic 1a (Q30E)” value is reported as over 10 fold. Take `CC(C)(C)C(=O)N[C@H](c1ncc(-c2ccc3cc4cc(-c5cnc([C@@H](NC(=O)C(C)(C)C)C(C)(C)C)[nH]5)ccc4cc3c2)[nH]1)C(C)(C)C` [Compound B27]: the “Fold-Synergistic 1a (Q30E)” value is on record as over 100 fold.

`CC(C)[C@H](NC(=O)c1ccc(Cl)cc1)c1ncc(-c2ccc(-c3ccc(-c4cnc([C@@H](NC(=O)c5ccc(Cl)cc5)C(C)C)[nH]4)cc3)cc2)[nH]1` [Compound S-83]: the “Fold-Synergistic 1a (Q30E)” value is given as over 100 fold. To `CC(C)[C@H](NC(=O)c1ccc(C(F)(F)F)nc1)c1ncc(-c2ccc(-c3ccc(-c4cnc([C@@H](NC(=O)c5ccc(C(F)(F)F)nc5)C(C)C)[nH]4)cc3)cc2)[nH]1` [Compound S-103] belongs over 100 fold; to `CC(C)(C(=O)N[C@H](c1nc(-c2ccc(-c3ccc(-c4c[nH]c([C@@H](NC(=O)C(C)(C)C(O)C5CC(F)(F)C5)C(C)(C)C)n4)cc3)cc2)c[nH]1)C(C)(C)C)C(O)C1CC(F)(F)C1` (single isomer, unassigned) [Compound N-144B], over 100 fold; to `COCC(=O)N[C@H](c1ncc(-c2ccc(-c3ccc(-c4cnc([C@@H](NC(=O)COC)C(C)C)[nH]4)cc3)cc2)[nH]1)C(C)C` [Compound S-13], over 10 fold. Next, `C[C@H]1CCN(C(=O)C(=O)N(C2CC2)C2CC2)C1c1nc(-c2ccc(-c3ccc(-c4c[nH]c(C5[C@@H](C)CCN5C(=O)C(=O)N(C5CC5)C5CC5)n4)cc3)cc2)c[nH]1` (some centres unmarked) [Compound W-244]: over 100 fold; `CC(C)(C)[C@H](NC(=O)C1(C(=O)N2CCC(F)(F)CC2)CC1)c1nc(-c2ccc(-c3ccc(-c4c[nH]c([C@@H](NC(=O)C5(C(=O)N6CCC(F)(F)CC6)CC5)C(C)(C)C)n4)cc3)cc2)c[nH]1` [Compound P-148]: over 100 fold. Next, `CC(C)[C@H](NC(=O)CCC1CCCC1)c1ncc(-c2ccc(-c3ccc(-c4cnc([C@@H](NC(=O)CCC5CCCC5)C(C)C)[nH]4)cc3)cc2)[nH]1` [Compound S-25]: over 100 fold; `CC(C)(C)[C@H](NC(=O)C1CC(F)(F)C1)c1nc(-c2ccc(-c3ccc(-c4c[nH]c([C@@H](NC(=O)C5CC(F)(F)C5)C(C)(C)C)n4)cc3)cc2)c[nH]1` [Compound P-17]: over 100 fold; `CC(C)(C)[C@H](NC(=O)C(N)=O)c1nc(-c2ccc(-c3ccc(-c4c[nH]c([C@@H](NC(=O)C(N)=O)C(C)(C)C)n4)cc3)cc2)c[nH]1` [Compound W-42]: over 10 fold. As to `CC(C)(C)[C@H](NC(=O)C1CCC(F)(F)CC1)c1ncc(-c2ccc(-c3cc4ccc(-c5cnc([C@@H](NC(=O)C6CCC(F)(F)CC6)C(C)(C)C)[nH]5)cc4o3)cc2)[nH]1` [Compound B61], the “Fold-Synergistic 1a (Q30E)” value is recorded as over 100 fold. In the case of `CC(C)(C)[C@H](NC(=O)c1cccc(Cl)c1)c1ncc(C#Cc2ccc3cc(-c4cnc([C@@H](NC(=O)c5cccc(Cl)c5)C(C)(C)C)[nH]4)ccc3c2)[nH]1` [Compound B3], the “Fold-Synergistic 1a (Q30E)” value is recorded as over 100 fold. To `CC(C)CC(=O)NC(C)(C)c1ncc(-c2ccc(-c3ccc(-c4cnc(C(C)(C)NC(=O)CC(C)C)[nH]4)cc3)cc2)[nH]1.O=C(O)C(F)(F)F.O=C(O)C(F)(F)F` [Compound N-26] belongs under 10 fold.

Take `CC(C)(C)[C@H](NC(=O)C1(C(=O)O)CCCCC1)c1nc(-c2ccc(-c3ccc(-c4c[nH]c([C@@H](NC(=O)C5(C(=O)O)CCCCC5)C(C)(C)C)n4)cc3)cc2)c[nH]1` [Compound N-147]: the “Fold-Synergistic 1a (Q30E)” value is over 100 fold. For `CC(C)[C@H](NC(=O)n1c2ccccc2c2ccccc21)c1ncc(-c2ccc(-c3ccc(-c4cnc([C@@H](NC(=O)n5c6ccccc6c6ccccc65)C(C)C)[nH]4)cc3)cc2)[nH]1` [Compound S-233], the “Fold-Synergistic 1a (Q30E)” value was over 100 fold. To `COC(=O)N[C@H](C(=O)N1CCC[C@H]1c1nc(-c2ccc(-c3ccc(-c4c[nH]c([C@@H](NC(=O)C5CCC(F)(F)CC5)C(C)C)n4)cc3)cc2)c[nH]1)C(C)C` [Compound Y-49] belongs over 100 fold; to `COC(=O)N[C@H]1CCN([C@H](c2ncc(-c3ccc(-c4ccc(-c5cnc([C@H](C(C)C)N6CC[C@H](NC(=O)OC)C6=O)[nH]5)cc4)cc3)[nH]2)C(C)C)C1=O.O=C(O)C(F)(F)F.O=C(O)C(F)(F)F` [Compound P-53], under 10 fold.

As for `COc1ccccc1C(O)C(C)(C)C(=O)N[C@H](c1nc(-c2ccc(-c3ccc(-c4c[nH]c([C@@H](NC(=O)C(C)(C)C(O)c5ccccc5OC)C(C)(C)C)n4)cc3)cc2)c[nH]1)C(C)(C)C` (single isomer, unassigned) [Compound N-125B], the “Fold-Synergistic 1a (Q30E)” value is listed as over 100 fold. Turning to `CC(C)[C@H](NC(=O)C1(C)COC1)c1ncc(-c2ccc(-c3ccc(-c4cnc([C@@H](NC(=O)C5(C)COC5)C(C)C)[nH]4)cc3)cc2)[nH]1` [Compound P-84], the “Fold-Synergistic 1a (Q30E)” value is recorded as over 100 fold. To `COC(=O)N(C)[C@H](C(=O)N[C@H](c1ncc(-c2ccc(-c3ccc(-c4cnc([C@@H](NC(=O)[C@H](C(C)C)N(C)C(=O)OC)C(C)C)[nH]4)cc3)cc2)[nH]1)C(C)C)C(C)C` [Compound P-107] belongs over 100 fold; to `CC(C)(C)[C@H](NC(=O)C(=O)N1CCC(F)(F)CC1)c1nc(-c2ccc(-c3ccc(-c4c[nH]c([C@@H](NC(=O)C(=O)N5CCC(F)(F)CC5)C(C)(C)C)n4)cc3)cc2)c[nH]1` [Compound W-24], over 100 fold. Next, `CC(C)[C@H](NC(=O)N1CCN(C)CC1)c1ncc(-c2ccc(-c3ccc(-c4cnc([C@@H](NC(=O)N5CCN(C)CC5)C(C)C)[nH]4)cc3)cc2)[nH]1` [Compound S-235]: over 10 fold; `CC(C)(C(=O)N[C@H](c1nc(-c2ccc(-c3ccc(-c4cnc([C@@H](NC(=O)C(C)(C)C5CCCO5)C(C)(C)C)[nH]4)cc3)cc2)c[nH]1)C(C)(C)C)C1CCCO1` (single isomer, unassigned) [Compound B170]: over 100 fold. Next, `CC(C)(C)OC(=O)NC1CCCCC1C(=O)N[C@H](c1nc(-c2ccc(-c3ccc(-c4c[nH]c([C@@H](NC(=O)C5CCCCC5NC(=O)OC(C)(C)C)C(C)(C)C)n4)cc3)cc2)c[nH]1)C(C)(C)C` (single isomer, unassigned) [Compound W-23C]: over 100 fold; `CC(C)[C@H](NC(=O)c1ccc(C(F)(F)F)cc1)c1ncc(-c2ccc(-c3ccc(-c4cnc([C@@H](NC(=O)c5ccc(C(F)(F)F)cc5)C(C)C)[nH]4)cc3)cc2)[nH]1` [Compound S-84]: over 100 fold; `CC(C)(C)[C@H](NC(=O)c1ccccc1O)c1nc(-c2ccc(-c3ccc(-c4c[nH]c([C@@H](NC(=O)c5ccccc5O)C(C)(C)C)n4)cc3)cc2)c[nH]1` [Compound Y-72]: over 100 fold. For `CC(C)(C(=O)N[C@H](c1nc(-c2ccc(-c3ccc(-c4c[nH]c([C@@H](NC(=O)C(C)(C)C(O)c5ccccc5F)C(C)(C)C)n4)cc3)cc2)c[nH]1)C(C)(C)C)C(O)c1ccccc1F` (single isomer, unassigned) [Compound N-124C], the “Fold-Synergistic 1a (Q30E)” value was over 100 fold. To `COCCC(=O)N1C[C@H](F)C[C@H]1C(=O)N[C@H](c1nc(-c2ccc(-c3ccc(-c4c[nH]c([C@@H](NC(=O)[C@@H]5C[C@@H](F)CN5C(=O)CCOC)C(C)(C)C)n4)cc3)cc2)c[nH]1)C(C)(C)C` [Compound W-103] belongs over 100 fold; to `CN(C)C(=O)C(=O)NC1(C(=O)N[C@H](c2nc(-c3ccc(-c4ccc(-c5c[nH]c([C@@H](NC(=O)C6(NC(=O)C(=O)N(C)C)CCCCC6)C(C)(C)C)n5)cc4)cc3)c[nH]2)C(C)(C)C)CCCCC1` [Compound W-268], over 100 fold. Turning to `CC(C)[C@H](NC(=O)c1ccccc1C(F)(F)F)c1ncc(-c2ccc(-c3ccc(-c4cnc([C@@H](NC(=O)c5ccccc5C(F)(F)F)C(C)C)[nH]4)cc3)cc2)[nH]1` [Compound S-69], the “Fold-Synergistic 1a (Q30E)” value is reported as over 100 fold. Next, `CC(C)[C@H](NC(=O)C1(C)CCCC1)c1ncc(-c2ccc3c(c2)Cc2cc(-c4cnc([C@@H](NC(=O)C5(C)CCCC5)C(C)C)[nH]4)ccc2-3)[nH]1.O=C(O)C(F)(F)F` [Compound N-72]: over 100 fold.

Regarding `COc1ccc2c(C(=O)N3CCC[C@H]3c3ncc(-c4ccc(-c5ccc(-c6cnc([C@@H]7CCCN7C(=O)c7nccc8cc(OC)ccc78)[nH]6)cc5)cc4)[nH]3)nccc2c1` [Compound S-198], the “Fold-Synergistic 1a (Q30E)” value is listed as over 100 fold. Next, `CC(C)[C@H](NC(=O)c1ccc(Cl)c(Cl)c1)c1ncc(-c2ccc(-c3ccc(-c4cnc([C@@H](NC(=O)c5ccc(Cl)c(Cl)c5)C(C)C)[nH]4)cc3)cc2)[nH]1` [Compound S-75]: over 100 fold. To `CC(C)[C@H](NC(=O)c1cccc(-c2ccccc2)c1)c1ncc(-c2ccc(-c3ccc(-c4cnc([C@@H](NC(=O)c5cccc(-c6ccccc6)c5)C(C)C)[nH]4)cc3)cc2)[nH]1` [Compound S-17] belongs over 100 fold; to `CC(C)(C)[C@H](NS(=O)(=O)N1CCOCC1)c1nc(-c2ccc(-c3ccc(-c4c[nH]c([C@@H](NS(=O)(=O)N5CCOCC5)C(C)(C)C)n4)cc3)cc2)c[nH]1` [Compound L-119], over 100 fold; to `CC(C)[C@H](NC(=O)C(C)(C)NC(=O)OC(C)(C)C)c1ncc(-c2ccc(-c3ccc(-c4cnc([C@@H](NC(=O)C(C)(C)NC(=O)OC(C)(C)C)C(C)C)[nH]4)cc3)cc2)[nH]1` [Compound Y-26], over 100 fold.
